# Experimental data published in US20140235578A1, “METHODS FOR TREATING NEOPLASIA AND FOR IDENTIFYING COMPOSITIONS USEFUL IN SUCH THERAPY” (priority 2007, published 2014).
# Columns and labels:
# A549 lung carcinoma = experiment: Cytotoxicity IC50 against A549 lung carcinoma; type: cell-based
# [1] = target: purified recombinant human Top2β (Homo sapiens, UniProt Q02880); experiment: In vitro DNA cleavage assay (Bodley et al.), Top2β; type: biochemical; settings: for Poisoning activity against Top2β: DNA cleavage, purified recombinant human Top2β; for activity against Top2β: as stated in Table 2; as to Poisoning activity against Top2β: key: each + represent roughly 10-fold in activity; −: non-detectable
# Procedure: (§1) Various β-carboline derivatives of compounds of Formula I above were evaluated for their antineoplastic activities and for their ability to preferentially poison Top2 isozymes. These compounds (i.e. those in Table 1 below) were also evaluated for Top2 isozyme-specific poisoning using the in vitro DNA cleavage assay described by Bodley et al. In the studies, purified recombinant human Top2 isozymes were used.
# (§2) Reactions were terminated with SDS (final 1%) and digested with proteinase K (100 μg/ml at 50° C. for 1 hr). After adding gel loading solution, the reaction mixtures were analyzed by agarose gel electrophoresis. Gel was dried and exposed to x-ray films for visualization.
# (§3) In certain preferred embodiments, the methods for identifying Top2α preferential poisons include using in vitro DNA cleavage assays. In the in vitro DNA cleavage assay, compounds as potential Top2 poisons are tested for their isozyme specificities through this assay using purified recombinant human Top2α (“hTop2α”) and human Top2β (“h Top2β”) isozymes. In this assay, the ability of various Top2 poisons to induce Top2 isozyme-mediated DNA cleavage of ^32P end-labeled linearized plasmid DNA was assessed. Thus, the relative specificity of various Top2 poisons against Top2 isozymes can be qualitatively determined based on the depletion of band intensities and/or the intensities of bands representing the cleavage products.
# [2] = target: purified recombinant human Top2α (Homo sapiens, UniProt P11388); experiment: In vitro DNA cleavage assay (Bodley et al.), Top2α; type: biochemical; settings: as stated in Table 2
# Procedure: as §1, §2, §3
# H9C2 cardiomyocytes [3] = experiment: γ-H2AX DNA damage signal by Western blotting; type: cell-based; settings: for effect on doxorubicin-induced γ-H2AX: ROS scavenger 100 μg/ml, added 30 min prior to doxorubicin
# Procedure: Cell lysates were analyzed by Western blotting using anti-γ-H2AX or anti-α-tubulin antibody (for assessing protein loading). […] Cells were then lysed and analyzed by Western blotting using anti-γ-H2AX or anti-α-tubulin antibody. […] Cells were then lysed and analyzed by Western blotting using anti-γ-H2AX or anti-α-tubulin antibody.
# (§4) Vitamin C and NAC were added 30 min prior to doxorubicin. Cell lysates were then analyzed by Western blotting using anti-γ-H2AX or anti-α-tubulin antibody. […] Cell lysates were then analyzed by Western blotting (upper panel) using anti-γ-H2AX or anti-α-tubulin antibody. Quantification of γ-H2AX signals is shown in the lower panel. C, H9C2 cells were treated with 0.1% DMSO (labeled DMSO), bortezomib (1 μM) or MG132 (4 μM) for 30 min, followed by co-treatment with either 0.1% DMSO (labeled control) or 0.5 μM doxorubicin (labeled Doxo) for 1.5 hrs. Neutral comet assay was then performed as described in Materials and Methods. The average comet tail moments were plotted as histograms (mean±SEM). *p-value<0.001, t-test.
# [4] = test system: melanomas in the skin of DMBA-initiated TOP2β+ and skin-specific top2β knockout mice; experiment: Carcinogenesis assay using a mouse skin model; type: in vivo
# Source text: Skin-specific top2β knockout mice and their TOP2β^+ controls were derived from the top2β^+/flox2 and top2β^flox2/flox2 lines previously reported. The top2β^flox2 allele contains two loxP sites flanking three Top2β exons that encode a region of TopIIβ containing the active-site tyrosyl residue; this allele expresses wild-type TopIIβ, but is converted to a null allele top2β^Δ2 upon exposure to Cre recombinase. Skin-specific deletion within the floxed top2β allele is achieved by crossing the top2β^flox2 lines with mice expressing Cre recombinase from the keratin 14 promoter (kindly provided by Andrew P. McMahon, Harvard University). The K14-Cre transgenic mouse line expresses Cre in the keratinocytes of the epidermis and the hair follicles during prenatal and postnatal development. Mice with the genotype K14-Cre top2β^flox2/flox2, K14-Cre top2β^+/flox2, top2β^flox2/flox2 and top2β^+/flox2 were generated and used in this study; with the exception of K14-Cre top2β^flox2/flox2 mice, which lack TopIIβ in skin cells, all the others are phenotypically Top2β^+ in all tissues.
# Seven-week old skin-specific top2β knockout mice and their TOP2β^+ controls were used in the study. The back of each mouse was shaved two days prior to treatment. The tumor initiator DMBA (1 μmol in 100 μl of DMSO) was applied once in the first week, followed by various treatments (two applications per week) for six groups of animals: Group 1, DMSO (100 μl), 5 applications; Group 2, VP-16 (10 μmol in 100 μl DMSO), 5 applications; Group 3, VP-16 (20 μmol in 200 μl of DMSO), 3 applications; Group 4, the tumor promoter TPA (phorbol 12-tetradecanoate 13-acetate, 17 nmol in 100 μl DMSO), 8 applications; Group 5, VP-16 (5 μmol in 100 μl DMSO), 5 application; Group 6, VP-16 (5 μmol in 100 μl DMSO), 10 applications. Mice were examined every week for appearance of melanomas on their skins. The number of melanomas visibly notable was scored at the end of the 16th week. The average numbers of tumors induced in different treatment groups were compared using Student's t-test.
# [5] = test system: control-shRNA-PC12 and Top2β-shRNA-PC12 cells; experiment: 4-day MTT assay in PC12 knockdown cells; type: cell-based, rat
# Procedure: (§5) Primary MEFs were isolated from E13.5 Top2β^+/+, Top2β^+/Δ2 and Top2β^Δ2/Δ2 mouse embryos, as described (the Top2β^Δ2 allele contains a deletion in the coding region of the active-site tyrosyl residue). SV40-transformed MEFs were obtained by transformation with pAN2 DNA as described. Cells were maintained in DMEM supplemented with 10% FetalPlex animal serum complex (Gemini Bio-Products), L-glutamine (2 mM), penicillin (100 units/ml), and streptomycin (100 μg/ml) in a 37° C. incubator with 5% CO2. PC12 cells were first clonally selected and then used to generate Top2β-shRNA and control-shRNA knockdown cells. A rat Top2β-shRNA sequence (5′-[…]-3′) was generated based on the 643-bp partial rat TopIki cDNA sequence (GenBank™ accession number D14046). Duplex (5′-[…]-3′) DNA was made and cloned into the LentiLox 3.7 vector (obtained from Dr. van Parijs, MIT). The control-shRNA sequence (5′-[…]-3′) was created by altering three nucleotides in the rat Top2β-shRNA sequence (underlined). The duplex (5′-[…]-3′) DNA was cloned into the LentiLox 3.7 vector. […]
# (§6) Top2β contributes minimally to VP-16 cytotoxicity in transformed cells. […] To test if Top2β is also important for VP-16 cytotoxicity, we determined the IC50 of VP-16 in two pairs of transformed Top2β knockout/knockdown cells using 4-day MTT assay (in triplicates). […]
# [6] = test system: Top2β+/− and Top2β−/− MEFs; experiment: 4-day MTT assay in transformed MEFs; type: cell-based, mouse; settings: triplicates
# Procedure: as §5, §6
# H9C2 cardiomyocytes [7] = type: cell-based; settings: bortezomib 1 μM or MG132 4 μM co-treatment, 0.5 μM doxorubicin, p<0.001
# Procedure: as §4
# The amount of Top2 cleavage complexes was measured by a band depletion assay as described in Materials and Methods. Cells were lysed either immediately or after reversal of the Top2 cleavage complexes (labeled R+250). Cell lysates were analyzed by Western blotting using anti-Top2α/Top2β or anti-α-tubulin antibody. […] Cells were then lysed and protein levels of Top2α, and Top2β isozymes were determined by Western blotting. […] Cell lysates were immunoblotted using anti-Top2β antibody. D, H9C2 cells were treated with ICRF187 (100 μM) for 4 hrs, followed by treatment with doxorubicin (Doxo, 0, 0.5 and 1 μM) for 1.5 hrs. […]
# Top2β = Top2β protein level by Western blotting in H9C2 cells; type: cell-based; settings: 1 μM co-treatment
# Procedure: The amount of Top2 cleavage complexes was measured by a band depletion assay as described in Materials and Methods. Cells were lysed either immediately or after reversal of the Top2 cleavage complexes (labeled R+250). Cell lysates were analyzed by Western blotting using anti-Top2α/Top2β or anti-α-tubulin antibody. […] Cells were then lysed and protein levels of Top2α, and Top2β isozymes were determined by Western blotting. […] Cell lysates were immunoblotted using anti-Top2β antibody. D, H9C2 cells were treated with ICRF187 (100 μM) for 4 hrs, followed by treatment with doxorubicin (Doxo, 0, 0.5 and 1 μM) for 1.5 hrs. Neutral comet assay was then performed as described in Materials and Methods. The average comet tail moments were plotted as histograms (mean±SEM). * p-value<0.001, t-test.
# purified recombinant human Top2α, sequence (P11388 whole entry): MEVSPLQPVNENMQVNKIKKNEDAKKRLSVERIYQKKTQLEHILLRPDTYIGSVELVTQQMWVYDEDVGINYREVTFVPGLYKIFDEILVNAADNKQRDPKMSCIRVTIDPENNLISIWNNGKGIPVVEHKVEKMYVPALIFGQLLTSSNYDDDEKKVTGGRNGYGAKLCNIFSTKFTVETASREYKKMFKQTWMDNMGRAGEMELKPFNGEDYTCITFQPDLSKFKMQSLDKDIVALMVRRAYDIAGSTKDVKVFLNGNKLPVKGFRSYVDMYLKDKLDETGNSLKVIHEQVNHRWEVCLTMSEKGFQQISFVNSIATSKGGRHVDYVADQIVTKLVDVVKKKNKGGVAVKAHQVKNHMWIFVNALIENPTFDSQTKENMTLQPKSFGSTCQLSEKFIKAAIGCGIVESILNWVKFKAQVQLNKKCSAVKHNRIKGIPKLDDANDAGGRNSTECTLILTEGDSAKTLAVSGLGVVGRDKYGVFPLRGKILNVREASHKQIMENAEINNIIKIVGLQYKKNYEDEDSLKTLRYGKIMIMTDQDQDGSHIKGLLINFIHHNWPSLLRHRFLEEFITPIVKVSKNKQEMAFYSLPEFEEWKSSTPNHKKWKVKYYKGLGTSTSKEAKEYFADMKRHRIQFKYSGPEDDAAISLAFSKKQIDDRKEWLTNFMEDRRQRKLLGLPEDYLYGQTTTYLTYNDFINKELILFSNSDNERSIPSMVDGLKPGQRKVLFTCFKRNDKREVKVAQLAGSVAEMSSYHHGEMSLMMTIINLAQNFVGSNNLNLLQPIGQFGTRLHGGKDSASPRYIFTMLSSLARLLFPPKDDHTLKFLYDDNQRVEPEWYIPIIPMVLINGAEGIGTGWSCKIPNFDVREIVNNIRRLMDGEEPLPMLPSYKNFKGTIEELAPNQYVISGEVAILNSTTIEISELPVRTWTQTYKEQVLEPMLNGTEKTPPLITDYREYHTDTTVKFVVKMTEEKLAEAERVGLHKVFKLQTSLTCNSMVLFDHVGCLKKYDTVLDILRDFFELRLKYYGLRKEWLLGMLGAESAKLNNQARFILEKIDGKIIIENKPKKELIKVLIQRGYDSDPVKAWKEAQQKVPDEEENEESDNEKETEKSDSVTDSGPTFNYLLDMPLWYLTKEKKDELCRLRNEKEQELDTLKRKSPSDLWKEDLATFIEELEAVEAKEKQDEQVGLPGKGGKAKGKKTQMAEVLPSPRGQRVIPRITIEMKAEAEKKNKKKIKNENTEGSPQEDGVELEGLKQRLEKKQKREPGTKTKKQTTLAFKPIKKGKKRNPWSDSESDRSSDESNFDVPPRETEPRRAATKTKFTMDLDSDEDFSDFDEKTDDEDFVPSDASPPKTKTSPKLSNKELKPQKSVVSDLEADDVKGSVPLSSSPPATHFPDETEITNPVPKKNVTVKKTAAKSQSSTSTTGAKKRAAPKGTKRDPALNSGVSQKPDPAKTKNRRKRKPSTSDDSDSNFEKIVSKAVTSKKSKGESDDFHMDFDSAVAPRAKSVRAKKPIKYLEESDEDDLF
# purified recombinant human Top2β, sequence (Q02880 whole entry): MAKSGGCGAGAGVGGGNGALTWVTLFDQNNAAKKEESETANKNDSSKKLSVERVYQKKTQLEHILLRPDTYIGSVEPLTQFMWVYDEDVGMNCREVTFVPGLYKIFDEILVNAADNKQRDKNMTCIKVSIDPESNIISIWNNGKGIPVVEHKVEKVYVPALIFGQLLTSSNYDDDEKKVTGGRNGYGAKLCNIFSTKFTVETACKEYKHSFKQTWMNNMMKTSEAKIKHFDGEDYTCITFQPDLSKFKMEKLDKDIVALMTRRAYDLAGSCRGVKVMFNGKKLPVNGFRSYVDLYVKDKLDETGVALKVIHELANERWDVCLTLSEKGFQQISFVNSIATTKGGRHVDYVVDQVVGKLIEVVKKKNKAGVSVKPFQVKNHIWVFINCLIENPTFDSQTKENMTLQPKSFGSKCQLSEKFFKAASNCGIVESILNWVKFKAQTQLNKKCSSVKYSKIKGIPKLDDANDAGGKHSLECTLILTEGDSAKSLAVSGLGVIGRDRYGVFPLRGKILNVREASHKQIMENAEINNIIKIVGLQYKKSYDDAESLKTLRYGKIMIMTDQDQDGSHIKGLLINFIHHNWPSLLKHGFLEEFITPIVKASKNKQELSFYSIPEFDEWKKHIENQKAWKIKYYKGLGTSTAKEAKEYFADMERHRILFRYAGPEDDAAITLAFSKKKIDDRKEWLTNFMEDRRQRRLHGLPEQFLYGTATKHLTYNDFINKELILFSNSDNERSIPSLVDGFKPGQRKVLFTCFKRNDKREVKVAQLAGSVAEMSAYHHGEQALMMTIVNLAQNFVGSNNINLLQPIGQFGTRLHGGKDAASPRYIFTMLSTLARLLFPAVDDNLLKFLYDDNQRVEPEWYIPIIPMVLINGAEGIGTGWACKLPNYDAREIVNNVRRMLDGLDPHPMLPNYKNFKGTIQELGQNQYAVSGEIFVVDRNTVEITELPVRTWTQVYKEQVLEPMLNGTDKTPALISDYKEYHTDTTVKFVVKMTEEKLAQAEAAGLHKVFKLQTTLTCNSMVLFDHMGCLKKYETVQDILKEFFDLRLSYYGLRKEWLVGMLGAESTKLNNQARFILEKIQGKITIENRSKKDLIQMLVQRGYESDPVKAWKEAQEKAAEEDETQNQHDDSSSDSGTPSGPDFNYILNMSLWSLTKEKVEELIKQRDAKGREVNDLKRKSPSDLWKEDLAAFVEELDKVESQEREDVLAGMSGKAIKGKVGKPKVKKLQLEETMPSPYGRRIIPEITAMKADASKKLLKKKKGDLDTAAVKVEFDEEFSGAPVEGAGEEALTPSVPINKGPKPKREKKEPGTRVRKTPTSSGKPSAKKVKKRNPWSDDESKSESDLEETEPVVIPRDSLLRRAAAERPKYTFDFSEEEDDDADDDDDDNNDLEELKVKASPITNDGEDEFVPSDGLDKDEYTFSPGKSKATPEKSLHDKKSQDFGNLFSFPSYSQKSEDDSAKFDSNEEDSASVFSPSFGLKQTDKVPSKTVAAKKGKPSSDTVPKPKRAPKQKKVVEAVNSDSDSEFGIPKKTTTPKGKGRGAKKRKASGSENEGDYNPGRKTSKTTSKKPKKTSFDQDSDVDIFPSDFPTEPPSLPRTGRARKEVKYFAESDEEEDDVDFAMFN
Compound,IC50 (A549 lung carcinoma) [µM],Poisoning activity against Top2β [1],activity against Top2β [1],activity against Top2α [2],further results
"1,2-dibenzyl-9-fluorobenzyl-9H-pyrido[3,4-b]indol-2-ium [compound 9]",4.2,−,non-detectable,roughly 20 fold,
"2,9-dibenzyl-1-chlorophenyl-9H-pyrido[3,4-b]indol-2-ium [compound 8]",6.1,−,non-detectable,roughly 20 fold,
"9-butyl-1-chlorobenzyl-2-(3-phenylpropyl)-9H-pyrido[3,4-b]indol-2-ium [compound 10]",< 1.7,+,10 fold,roughly 20 fold,
"COc1cccc2c1C(=O)c1c(O)c3c(c(O)c1C2=O)C[C@@](O)(C(=O)CO)C[C@@H]3O[C@H]1C[C@H](N)[C@H](O)[C@H](C)O1 [Doxorubicin, doxorubicin]",,,,,"induction of γ-H2AX (H9C2 cardiomyocytes [3]; 0.1-10 μM, 1 hr): concentration-dependent up to 1 μM"
CC(=O)N[C@@H](CS)C(=O)O [N-Acetyl Cysteine],,,,,effect on doxorubicin-induced γ-H2AX (H9C2 cardiomyocytes [3]): unaffected
"CCCCCCCCCCCCCC(=O)O[C@@H]1[C@@H](C)[C@@]2(O)[C@@H](C=C(CO)C[C@]3(O)C(=O)C(C)=C[C@@H]23)[C@@H]2C(C)(C)[C@]12OC(C)=O [TPA, phorbol 12-tetradecanoate 13-acetate]",,,,,"ratio of average number of melanomas per mouse, Top2β+ versus Top2β− mice ([4]; Group 4, TPA treatment): 1.3; increase in the average number of melanomas per mouse versus DMSO ([4]; TOP2β+ mice, Group 4, 17 nmol × 8 applications): 130%; increase in skin melanoma versus DMSO ([4]; TOP2β− mice, Group 4, 17 nmol × 8 applications): 150%"
"COc1cc([C@@H]2c3cc4c(cc3[C@@H](O[C@@H]3O[C@@H]5CO[C@@H](C)O[C@H]5[C@H](O)[C@H]3O)[C@H]3COC(=O)[C@H]23)OCO4)cc(OC)c1O [VP16, etoposide]",,,,,"IC50 ([5]; Top2β-shRNA-PC12 cells): 1.6 ± 0.1 µM; IC50 ([5]; control-shRNA-PC12 cells): 1.9 ± 0.1 µM; more melanomas in TOP2β+ mice than in skin-specific Top2β knockout mice ([4]; mouse, in vivo): 2-13 fold; IC50 ([6]; Top2β+/− MEFs): 0.038 ± 0.007 µM; IC50 ([6]; Top2β−/− MEFs): 0.04 ± 0.006 µM"
CC(C)C[C@H](NC(=O)[C@H](Cc1ccccc1)NC(=O)c1cnccn1)B(O)O [bortezomib],,,,,effect on doxorubicin-induced comet tail moment (H9C2 cardiomyocytes [7]): significantly reduced; effect on dexrazoxane-induced degradation of Top2β (Top2β): abolished
"CCCCOc1ccc2c3cc[n+](Cc4ccccc4)c(C)c3n(CC(C)C)c2c1 [compound 3, 2-benzyl-7-butoxy-9-isobutyl-1-methyl-9H-pyrido[3,4-b]indol-2-ium]",4.6,−,non-detectable,roughly 20 fold,
"Cc1c2c(cc[n+]1Cc1ccccc1)c1ccc(OCC(C)C)cc1n2CC(C)C [compound 4, 2-benzyl-7-isobutoxy-9-isobutyl-1-methyl-9H-pyrido[3,4-b]indol-2-ium]",5.3,−,non-detectable,roughly 20 fold,
O=C1O[C@H]([C@@H](O)CO)C(O)=C1O [vitamin C],,,,,effect on doxorubicin-induced γ-H2AX (H9C2 cardiomyocytes [3]): unaffected
ICRF-193,,,,,effect on doxorubicin (0.5 μM)- and VP-16 (10 μM)-induced γ-H2AX (H9C2 cardiomyocytes [3]): abolished
